Assay results: PMC10865806, “Structural insights into the molecular mechanism of high-level ceftazidime–avibactam resistance conferred by CMY-185” (mBio, 2024)

Tests used:
Assay in all cases: Competitive inhibition of cephalothin hydrolysis and avibactam inhibition kinetics
Type in all cases: biochemical, Escherichia coli
[1] = biological target: T1, CMY-2 variant Q120K_N346Y (Klebsiella pneumoniae, UniProt Q48434, N366Y/Q140K)
T1 construct: all CMY-2 variant genes encoding the mature enzyme without a signal peptide were cloned into the protein expression plasmid vector pET-30b; made in house; host or cells: E. coli BL21 (DE3), pET-30b
Source text: (§1) We tested the enzymes, CMY-2, two single mutants V211S (CMY-42) and N346Y, three double mutants A114E_N346Y, Q120K_N346Y, and V211S_N346Y, and the quadruplet mutant CMY-185 to elucidate the impact on the kinetic properties resulting from the four amino acid substitutions present in CMY-185 compared with CMY-2 ([8]). The steady-state kinetic parameters kcat and Km (or Ki app) for nitrocefin, cephalothin, ceftazidime, and cefiderocol and the inhibition parameters Ki app, k2/K, k−2, and koff for avibactam are summarized in Table 1. During the hydrolysis of nitrocefin, we observed the reduction of the initial velocity at concentrations above 50 µM particularly for the CMY-2 variants harboring the N346Y substitution. As this could have represented substrate inhibition, we then determined the kinetics parameters for nitrocefin using the Haldane equation ([16]). […] In addition, during the hydrolysis of cefiderocol by CMY-185, the initial velocities at a concentration range of 3.7–59.4 µM were similar.
(§2) The steady-state kinetics were carried out on a UV-Visible spectrometer (UV-1280, Shimadzu, Japan) in PBS pH 7.2 at 25°C with a constant amount of enzyme and varying concentrations of the substrates. We tested nitrocefin, cephalothin, ceftazidime, and cefiderocol as the substrates and avibactam as the inhibitor. The steady-state kinetics parameters Km and kcat were determined with the Michaelis-Menten equation. For poorly hydrolyzed substrates, the Km value was assumed to be the competitive inhibition constant (Ki app) value according to previous studies ([17], [19]). Inhibition parameter values of Ki app, k2/K, k−2, and koff for avibactam were determined using a method as described previously ([33]). Cephalothin was used as the reporter substrate for competitive inhibition experiments, and its concentration was fixed at 100 µM. The enzyme concentration was 1–10 nM. Inverse steady-state initial velocities were plotted against the concentration of the competitive inhibitor agents, such as ceftazidime, cefiderocol, and avibactam. The data were analyzed by linear regression analysis of the Dixon plot, and Ki app (observed) was determined by dividing the y-intercept value by the slope of the line. It was then corrected to account for the affinity of cephalothin for each enzyme using the Equation (1):
(§3) (1) Ki app=Ki app (observed)/{1+[S]/Km (cephalothin)}
(§4) where [S] represents the concentration of the reporter substrate cephalothin, and Km (cephalothin) is the Km value of cephalothin for each enzyme.
(§5) The koff value was determined using a jump dilution assay. The enzyme and avibactam were mixed and preincubated at 25°C for 5 min. The concentration of avibactam depended on the enzyme and concentrations 10-fold higher from each Ki app (observed) value were adopted, which were determined based on the corrected competitive inhibition constants Ki app. Preincubated enzyme-avibactam mixture was then diluted 2,000-fold in the 100 µM cephalothin solution, and the hydrolysis of cephalothin was measured. Three independent measurements were performed for each enzyme and substrate or inhibitor combination. Curve fittings using linear or non-linear regression were performed with R 4.1.3 (R Core Team, 2022).

[2] = biological target: T2, CMY-2 (Klebsiella pneumoniae, UniProt Q48434)
T2 construct: all CMY-2 variant genes encoding the mature enzyme without a signal peptide were cloned into the protein expression plasmid vector pET-30b; made in house; host or cells: E. coli BL21 (DE3), pET-30b
Source text: as §1, §2, §3, §4, §5

[3] = biological target: T3, CMY-2 variant A114E_N346Y (Klebsiella pneumoniae, UniProt Q48434, A134E/N366Y)
T3 construct: all CMY-2 variant genes encoding the mature enzyme without a signal peptide were cloned into the protein expression plasmid vector pET-30b; made in house; host or cells: E. coli BL21 (DE3), pET-30b
Source text: as §1, §2, §3, §4, §5

[4] = biological target: T4, CMY-185 (Klebsiella pneumoniae, UniProt Q48434, A134E/N366Y/Q140K/V231S)
T4 construct: all CMY-2 variant genes encoding the mature enzyme without a signal peptide were cloned into the protein expression plasmid vector pET-30b; made in house; host or cells: E. coli BL21 (DE3), pET-30b
Source text: as §1, §2, §3, §4, §5

[5] = biological target: T5, CMY-2 variant V211S_N346Y (Klebsiella pneumoniae, UniProt Q48434, N366Y/V231S)
T5 construct: all CMY-2 variant genes encoding the mature enzyme without a signal peptide were cloned into the protein expression plasmid vector pET-30b; made in house; host or cells: E. coli BL21 (DE3), pET-30b
Source text: as §1, §2, §3, §4, §5

[6] = biological target: T6, V211S (CMY-42) (Klebsiella pneumoniae, UniProt Q48434, V231S)
T6 construct: all CMY-2 variant genes encoding the mature enzyme without a signal peptide were cloned into the protein expression plasmid vector pET-30b; made in house; host or cells: E. coli BL21 (DE3), pET-30b
Source text: as §1, §2, §3, §4, §5

[7] = biological target: T7, CMY-2 variant N346Y (Klebsiella pneumoniae, UniProt Q48434, N366Y)
T7 construct: all CMY-2 variant genes encoding the mature enzyme without a signal peptide were cloned into the protein expression plasmid vector pET-30b; made in house; host or cells: E. coli BL21 (DE3), pET-30b
Source text: as §1, §2, §3, §4, §5

[8] = reporter substrate cephalothin 100 µM, Dixon plot, read-out: Ki app

NC(=O)[C@@H]1CC[C@@H]2CN1C(=O)N2OS(=O)(=O)O [Avibactam, avibactam]
fold higher Ki app ([1]; Q120K_N346Y compared to CMY-2 and V211S): 10,000 fold
fold higher Ki app ([1]; Q120K_N346Y compared to N346Y): 10 fold
k−2 ([1]; Q120K_N346Y, decarbamoylation rate constant): 0.002 ± 0.0001 s⁻¹
koff ([1]; Q120K_N346Y, jump dilution assay): 4e-06 s⁻¹
Ki ([1]; Q120K_N346Y, reporter substrate cephalothin 100 µM, Dixon plot, read-out: Ki app): 590 µM
k−2 ([2]; decarbamoylation rate constant): 0.00012 ± 2e-05 s⁻¹
koff ([2]; jump dilution assay): 7.3e-05 s⁻¹
Ki [2, 8]: 63 nM
kinact/KI ([2]; second-order carbamoylation rate constant, read-out: k2/K): 28000 M⁻¹ s⁻¹
k−2 ([3]; decarbamoylation rate constant): 0.00011 ± 0 s⁻¹
koff ([3]; jump dilution assay): 9e-07 s⁻¹
Ki [3, 8]: 80 ± 9 µM
k−2 ([4]; CMY-185, decarbamoylation rate constant): 0.0007 ± 5e-05 s⁻¹
koff ([4]; CMY-185, jump dilution assay): 4.8e-07 s⁻¹
Ki ([4]; CMY-185, reporter substrate cephalothin 100 µM, Dixon plot, read-out: Ki app): 1.3 mM
fold higher Ki app ([4]; CMY-185 compared to CMY-2 and V211S): 20,000 fold
k−2 ([5]; decarbamoylation rate constant): 0.00044 ± 0.00021 s⁻¹
koff ([5]; jump dilution assay): 2.4e-06 s⁻¹
Ki [5, 8]: 14 ± 4 µM
k−2 ([6]; decarbamoylation rate constant): 0.00015 ± 2e-05 s⁻¹
koff ([6]; jump dilution assay): 6e-05 s⁻¹
Ki [6, 8]: 34 nM
fold higher Ki app ([7]; N346Y compared to CMY-2 and V211S): 1,000 fold
k−2 ([7]; N346Y, decarbamoylation rate constant): 1e-05 ± 0.00016 s⁻¹
koff ([7]; N346Y, jump dilution assay): 2.6e-06 s⁻¹
Ki ([7]; N346Y, reporter substrate cephalothin 100 µM, Dixon plot, read-out: Ki app): 41 ± 6 µM
